Source: US11345681B1, “Inhibitors of fibroblast growth factor receptor kinases” (Kinnate Biopharma Inc., priority 2020, dated 2022)
pIC50: −log10 of the molar value.

Each compound was assayed against Wild type FGFR2 (Homo sapiens (Human), UniProt P21802) (assay: FGFR2 kinase assay (fluorescence-based microfluidic mobility shift assay)). Conditions: wild type FGFR2 0.06 nM, 100 μM ATP, 80 minutes at room temperature; class symbols.
Sequence of Wild type FGFR2 (P21802 22-821): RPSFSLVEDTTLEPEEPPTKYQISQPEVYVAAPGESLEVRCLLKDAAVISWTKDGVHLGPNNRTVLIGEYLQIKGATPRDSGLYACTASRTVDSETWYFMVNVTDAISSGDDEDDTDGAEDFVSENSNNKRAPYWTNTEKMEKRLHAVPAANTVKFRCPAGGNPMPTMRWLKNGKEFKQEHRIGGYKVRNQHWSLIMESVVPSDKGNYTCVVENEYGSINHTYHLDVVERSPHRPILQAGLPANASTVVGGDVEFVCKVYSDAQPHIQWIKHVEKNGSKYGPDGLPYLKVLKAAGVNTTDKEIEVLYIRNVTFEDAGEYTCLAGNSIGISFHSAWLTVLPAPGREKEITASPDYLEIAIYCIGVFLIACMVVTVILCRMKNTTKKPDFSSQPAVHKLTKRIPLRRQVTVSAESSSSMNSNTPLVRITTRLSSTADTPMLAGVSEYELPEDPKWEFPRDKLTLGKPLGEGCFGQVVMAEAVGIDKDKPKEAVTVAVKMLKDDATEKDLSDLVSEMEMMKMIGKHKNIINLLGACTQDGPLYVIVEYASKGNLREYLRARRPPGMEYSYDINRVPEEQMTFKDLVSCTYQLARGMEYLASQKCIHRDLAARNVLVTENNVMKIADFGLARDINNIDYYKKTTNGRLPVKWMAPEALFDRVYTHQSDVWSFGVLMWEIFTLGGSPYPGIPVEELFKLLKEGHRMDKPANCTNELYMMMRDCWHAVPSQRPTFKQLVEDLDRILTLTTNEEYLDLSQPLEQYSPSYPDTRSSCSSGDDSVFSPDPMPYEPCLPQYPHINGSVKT
Format: biochemical
In the case of `C=CC(=O)N1C[C@@H](n2nc(C#Cc3c(F)c(F)c4c(ncn4C4CC4)c3F)c(C(N)=O)c2NC)C[C@@H]1COC` [Example 153, 3-[2-(1-cyclopropyl-4,6,7-trifluoro-1,3-benzodiazol-5-yl)ethynyl]-1-[(3S,5R)-5-(methoxymethyl)-1-(prop-2-enoyl)pyrrolidin-3-yl]-5-(methylamino)pyrazole-4-carboxamide], the pIC50 was no less than 7.00.
Compound `C=CC(=O)N1C[C@@H](n2nc(C#Cc3cc4ncn(CC)c4c(F)c3F)c(C(N)=O)c2NC)C[C@@H]1COC(F)F` [Example 154, 1-[(3S,5R)-5-[(Difluoromethoxy)methyl]-1-(prop-2-enoyl)pyrrolidin-3-yl]-3-[2-(1-ethyl-6,7-difluoro-1,3-benzodiazol-5-yl)ethynyl]-5-(methylamino)pyrazole-4-carboxamide] has a pIC50 of no less than 7.00.
With `C=CC(=O)N1C[C@@H](n2nc(C#Cc3ccc4c(c3)ncn4C3CC3)c(C(N)=O)c2NC)C[C@@H]1COC(F)F` [Example 155, 3-[2-(1-Cyclopropyl-1,3-benzodiazol-5-yl)ethynyl]-1-[(3S,5R)-5-[(difluoromethoxy)methyl]-1-(prop-2-enoyl)pyrrolidin-3-yl]-5-(methylamino)pyrazole-4-carboxamide] the pIC50 was no less than 7.00.
Compound `C=CC(=O)N1C[C@@H](n2nc(C#Cc3c(F)cc4c(ncn4C4CC4)c3F)c(C(N)=O)c2NC)C[C@@H]1COC(F)F` [Example 156, 1-((3S,5R)-1-Acryloyl-5-((difluoromethoxy)methyl)pyrrolidin-3-yl)-3-((1-cyclopropyl-4,6-difluoro-1H-benzo[d]imidazol-5-yl)ethynyl)-5-(methylamino)-1H-pyrazole-4-carboxamide] has a pIC50 of no less than 7.00.
`C=CC(=O)N1C[C@@H](n2nc(C#Cc3c(F)c(F)c4c(ncn4CC)c3F)c(C(N)=O)c2NC)C[C@@H]1COC` [Example 157, 3-[2-(1-Ethyl-4,6,7-trifluoro-1,3-benzodiazol-5-yl)ethynyl]-1-[(3S,5R)-5-(methoxymethyl)-1-(prop-2-enoyl)pyrrolidin-3-yl]-5-(methylamino)pyrazole-4-carboxamide] was tested, and the pIC50 was no less than 7.00.
`C=CC(=O)N1C[C@@H](n2nc(C#Cc3cc4ncn(C5CC5)c4c(F)c3F)c(C(N)=O)c2NC)C[C@@H]1C` [Example 158, 3-[2-(1-cyclopropyl-6,7-difluoro-1,3-benzodiazol-5-yl)ethynyl]-1-[(3S,5S)-5-methyl-1-(prop-2-enoyl)pyrrolidin-3-yl]-5-(methylamino)pyrazole-4-carboxamide] was tested, and the pIC50 was no less than 7.00.
Work on `C=CC(=O)N1C[C@@H](n2nc(C#Cc3cc4ncn(C5CC5)c4cc3F)c(C(N)=O)c2NC)C[C@@H]1COC(F)F` [Example 161, 1-((3S,5R)-1-acryloyl-5-((difluoromethoxy)methyl)pyrrolidin-3-yl)-3-((1-cyclopropyl-6-fluoro-1H-benzo[d]imidazol-5-yl)ethynyl)-5-(methylamino)-1H-pyrazole-4-carboxamide] yielded a pIC50 of no less than 7.00.
Compound `C=CC(=O)N1C[C@@H](n2nc(C#Cc3c(F)cc4c(ncn4C4CC4)c3F)c(C(N)=O)c2NC)C[C@@H]1C(F)F` [Example 163, 3-[2-(1-Cyclopropyl-4,6-difluoro-1,3-benzodiazol-5-yl)ethynyl]-1-[(3S,5R)-5-(difluoromethyl)-1-(prop-2-enoyl)pyrrolidin-3-yl]-5-(methylamino)pyrazole-4-carboxamide] has a pIC50 of no less than 7.00.
`C=CC(=O)N1C[C@@H](n2nc(C#Cc3cc4ncn(C5CC5)c4cc3F)c(C(N)=O)c2NC)C[C@H]1C` [Example 164, 1-((3S,5R)-1-Acryloyl-5-methylpyrrolidin-3-yl)-3-((1-cyclopropyl-6-fluoro-1H-benzo[d]imidazol-5-yl)ethynyl)-5-(methylamino)-1H-pyrazole-4-carboxamide] showed a pIC50 of no less than 7.00.
Work on `C=CC(=O)N1C[C@@H](n2nc(C#Cc3c(F)cc4c(ncn4C4CC4)c3F)c(C(N)=O)c2NC)C[C@H]1C` [Example 165, 3-[2-(1-Cyclopropyl-4,6-difluoro-1,3-benzodiazol-5-yl)ethynyl]-1-[(3S,5R)-5-methyl-1-(prop-2-enoyl)pyrrolidin-3-yl]-5-(methylamino)pyrazole-4-carboxamide] yielded a pIC50 of no less than 7.00.
